Where no end group is shown, it is not given here.
What was measured:
X. axonopodis = assay type: cell-based, Xanthomonas axonopodis; settings: OD 600 after 16 h of growth, serial two-fold dilutions, room temperature, n = 3
[1] = system: sheep red blood cells (RBCs); assay type: cell-based

LSLIAAAGKETIRQYLKNEIKKKGRKAVIAW [Syn-safencin]
MIC (X. axonopodis): 8 µM | hemolytic activity (in words) [1]: mild hemolytic activity

Source: paper PMC8887552 (The Journal of antibiotics, 2018)
